Experimental data published in PubChem BioAssay (NCI).
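48-hour exposure; five concentrations; linearly interpolated endpoints. At the TGI there is no net growth.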

Assays:
Assay in all cases: NCI anticancer screen, dose series, 48 h
MDA-MB-435 = system: MDA-MB-435
MALME-3M melanoma = system: MALME-3M melanoma
HCT-15 colon = system: HCT-15 colon
NCI-H460 lung = system: NCI-H460 lung
SNB-75 CNS = system: SNB-75 CNS
CCRF-CEM leukemia = system: CCRF-CEM leukemia
ACHN renal = system: ACHN renal
HOP-92 NSCLC = system: HOP-92 NSCLC
MDA-N = system: MDA-N
BT-549 breast = system: BT-549 breast

Row | SMILES | TGI (MDA-MB-435) [µM] | TGI (MALME-3M melanoma) [µM] | TGI (HCT-15 colon) [µM] | TGI (NCI-H460 lung) [µM] | TGI (SNB-75 CNS) [µM] | TGI (CCRF-CEM leukemia) [µM] | TGI (ACHN renal) [µM] | TGI (HOP-92 NSCLC) [µM] | TGI (MDA-N) [µM] | TGI (BT-549 breast) [µM]
1 | COc1cc(/C=N/NC2=NCCN2)ccc1O | > 100 | > 100 | > 100 | > 100 | > 100 | > 100 | > 100 | > 100 | > 100 | > 100
2 | Nc1cc2c3c(cccc3c1)C(=O)N(c1ccc(OCCN3CCCC3)cc1)C2=O | 42.4 | 35.9 | 26.8 | 23.7 | 25.3 | 69 | 26.5 | 50.6 | 34.7 | 34.3
3 | CCCCCCCCCCCCO[P+](=O)OCCCCCCCCCCCC | > 100 | > 100 | > 100 | > 100 | > 100 | > 100 | > 100 | > 100 | > 100 | > 100
4 | C=C1CC2[C@H](C)C(=O)CCC2(C)C2=C1C1CCC(C(C)CCC(=C)C(C)C(=O)O)C1(C)CC2=O (stereo partly drawn) | > 100 | > 100 | > 100 | > 100 | > 100 | 30.3 | > 100 | 85.2 | > 100 | > 100
5 | COc1ccccc1NC(=S)N/N=C/c1cccc(C)n1 | > 100 | > 81.2 | > 100 | > 85.5 | 53.5 | > 100 | 25.6 | > 92.8 | > 100 | > 100
6 | CC[C@@]1(O)C(=O)OCc2c1cc1n(c2=O)Cc2c-1nc1ccccc1c2/C=N\NC(=O)C(N)Cc1c[nH]c2ccccc12 (stereo partly drawn) | > 87.9 | > 48.9 | > 100 | 6.42 | 1.83 | 3.44 | 0.446 | > 54 | > 100 | > 100
7 | CN(C)CCNC(=O)c1c(O)ccc2c1c1c(n2CCc2ccccc2)C(=O)c2ccccc2C1=O | 5.08 | 9.35 | 15.6 | 11.4 | 28.1 | 6.43 | 23 | 22.7 | 5.34 | 32.6
8 | Cc1ccc(NC(=O)CC(=O)n2nc(C)c(N=Nc3cccc(C)c3)c2C)cc1 | > 100 | > 100 | > 100 | > 100 | 62.3 | > 100 | > 100 | > 100 | > 100 | > 100
9 | CN(C)CCCNC(=O)c1cn2c(ccc3sc4ccccc4c(=O)c32)n1 | 30.4 | 24.4 | 10.7 | 2.73 | 30.5 | > 20.1 | 25.8 | 24.7 | 9.88 | 37.8
10 | Cc1ccc(S(=O)(=O)Nn2c(O)c(C#N)c(-c3ccc([N+](=O)[O-])cc3)c(C#N)c2=O)cc1 | > 100 | > 100 | > 100 | > 100 | > 100 | > 100 | > 100 | > 100 | > 100 | > 100
11 | Cc1ccc(S[C@@H](C)[C@@](O)(C(N)=O)c2ccccc2)cc1 | > 100 | 42.8 | > 100 | > 100 | > 100 | 26.2 | > 100 | 37.6 | > 100 | > 100
12 | CC/C(=C\c1ccc(OC)cc1)c1ccc(OC)cc1 | > 100 | > 100 | > 100 | > 100 | > 100 | > 100 | > 100 | > 100 | > 100 | > 100
13 | CCOC(=O)C1=C(C)N(Cc2ccccc2)C2(O)C=CC(=O)C3=C(O)c4ccccc4C(=O)C312 (stereo not drawn) | 27.5 | 8.35 | 22 | 24.4 | 55.4 | 36.5 | 34.6 | 41.8 | 22.3 | 20.2
14 | O=C(N/N=C\c1ccc([N+](=O)[O-])s1)c1ccncc1 | > 55 | 23.3 | > 44 | 33.1 | > 100 | > 29.1 | > 60.8 | 32.8 | > 55.8 | 27.2
15 | CCOC(=O)CCC(NC(=O)c1ccc(Nc2nc3ccccc3nc2C(=O)OCC)cc1)C(=O)OCC (stereo not drawn) | > 100 | 26.3 | > 100 | > 100 | 6.16 | > 100 | 11.5 | 13.9 | > 100 | 25.7
16 | CC/C(N)=N\NC(=O)OC(C)(C)C | > 100 | > 100 | > 100 | – | > 100 | > 100 | > 100 | > 100 | > 100 | > 100
17 | CN1CCN([C@H]2C[C@H]3[C@@H]4CC=C5C[C@@H](O)CC[C@]5(C)[C@H]4CC[C@]3(C)[C@H]2O)CC1 | 31 | > 58.1 | > 59.2 | > 59.2 | 97.4 | 57.1 | > 100 | > 100 | 34.6 | > 100
18 | O=S(=O)(O)c1cc(S(=O)(=O)O)c2c(N=Nc3ccc(N=Nc4ccccc4)cc3)c(O)ccc2c1 | > 100 | > 100 | > 100 | > 100 | > 100 | > 100 | > 100 | > 100 | > 100 | > 100

Row | SMILES | TGI (MDA-MB-435) [µM] | TGI (MALME-3M melanoma) [µM] | TGI (HCT-15 colon) [µM] | TGI (NCI-H460 lung) [µM] | TGI (SNB-75 CNS) [µM] | TGI (CCRF-CEM leukemia) [µM] | TGI (ACHN renal) [µM] | TGI (HOP-92 NSCLC) [µM] | TGI (MDA-N) [µM] | TGI (BT-549 breast) [µM]
19 | O=C1C(c2c(O)[nH]c3ccc(S(=O)(=O)NCCO)cc23)=Nc2ccccc21 | > 100 | > 100 | > 100 | > 100 | 7.43 | > 100 | > 100 | 82.4 | > 100 | 18.7
20 | O=P(O)(O)CN1CCNCCN(CP(=O)(O)O)CC1 | > 100 | > 100 | > 100 | > 100 | > 100 | > 70.5 | > 100 | > 100 | > 72.9 | > 100
21 | O=C1C=C(N2CCN(CCOCCO)CC2)C(=O)c2c(O)ccc(O)c21 | 3.33 | 2.91 | 9.55 | 21.4 | 30.6 | 14.8 | 20.1 | 20.7 | 3.29 | 25.5
22 | C=C1C(=O)OC2C3OC(C)(CCC(O)C3COC(C)=O)CC(OC(=O)/C(=C/C)COC(C)=O)C12 (stereo not drawn) | 12.6 | 0.0763 | 0.141 | 2.22 | 18.1 | 0.269 | 0.452 | 0.392 | 0.645 | 0.722
23 | CCNC(=S)N/N=C(\C)c1cccc(C)n1 | > 100 | > 100 | > 100 | 26.4 | > 100 | > 100 | > 100 | 53.1 | > 100 | > 100
24 | O=S(=O)(O)c1ccc2c(N=Nc3ccc(Sc4ccc(N=Nc5c(O)ccc6cc(S(=O)(=O)O)ccc56)cc4)cc3)c(O)ccc2c1 | > 100 | > 100 | > 100 | > 100 | – | > 100 | > 100 | > 100 | > 100 | > 100
25 | COc1ccc2c(c1)CCC/C2=N\NS(=O)(=O)c1c(C)cc(C)cc1C | > 100 | 48.8 | 95.3 | 95.3 | 58.9 | 63.7 | > 100 | 54.7 | > 100 | 77.2
26 | c1cc2c(cc1C1=NCCN1)c1cc(C3=NCCN3)ccc1n2CC1CCCCC1 | 50.3 | 23.8 | > 100 | 34.5 | 30.6 | 50.2 | > 100 | 47.9 | > 100 | 41.9
27 | O=C(Nc1ccc2ccccc2c1)c1cc2cc(CCl)ccc2oc1=O | > 100 | > 100 | > 100 | > 100 | 38.5 | > 100 | > 100 | > 100 | > 100 | > 100
28 | CC(C)NC(=O)OCc1c(COC(=O)NC(C)C)c(-c2cc[n+](COC(=O)C3CCCCC3)cc2)n2c1CCC2 | > 100 | > 100 | > 100 | > 100 | > 100 | > 100 | > 100 | > 100 | > 100 | > 100
29 | O=c1cc(N2CCCC2)[nH]c(=O)n1-c1ccc(Cl)cc1 | > 100 | > 100 | > 100 | > 100 | > 100 | > 100 | > 100 | > 100 | > 100 | > 100
30 | Cc1ccc2c(c1C)C(=O)/C(=C/c1cccc(C)c1C(=O)O)C2 | > 100 | > 100 | > 100 | > 100 | > 100 | > 100 | > 100 | > 91 | > 100 | > 100
31 | CC1C2(C)OCC(C#N)(C(=N)O2)C1(C#N)C#N (stereo not drawn) | > 100 | 51.8 | 26.3 | 42.2 | > 100 | > 100 | > 100 | 48.9 | 41.7 | > 100
32 | CCOC(=O)/C=C/[C@@H](CC)O[Si](C(C)C)(C(C)C)C(C)C | > 100 | > 100 | > 100 | > 100 | > 100 | > 100 | > 100 | > 100 | > 100 | > 100
33 | COC(=O)c1ccc(NCC2=C(Br)C(=O)C=CC2=O)cc1Cl | 38.1 | 28.4 | 29.2 | 32.2 | > 100 | > 100 | 30.7 | 29.1 | 35.8 | 26.1
34 | COc1cc2c3c(cc(Cl)nc3c1OC)C(O)(CC(=O)c1ccccc1)C(=O)N2 (stereo not drawn) | 3.53 | 4.04 | 50.9 | 43.1 | 28.6 | 12.5 | 28.3 | 3.66 | 3.65 | 30.4
35 | CCCCCCCCCCCCOP(=O)(O)OP(=O)(O)OCC1OC(n2cc(C)c(=O)[nH]c2=O)CC1O (stereo not drawn) | > 100 | > 100 | > 100 | > 100 | > 100 | > 100 | > 100 | > 100 | > 100 | > 100
36 | O=C(NCCCCCN1CCC2(CCCCC2)CC1)C(C1CCCCC1)C1CCCCC1 | 3.74 | 3.26 | 12.2 | 6.46 | 9.48 | 11.9 | 8.68 | 12.2 | 3.51 | 15.4
